Marks after values point to notes of the source that are not given here. Each block holds one molecule with its values, some of them ahead of it.
Assays:
[1] = cited from earlier work
[2] = cited from earlier work; remark: listed apart in the source
[3] = Cyclodextrin solubility in water; type: physicochemical
[4] = Stability of the DIMEB complex from Example 3 a) 1 and the non-complexed active ingredient; type: physicochemical
From the text: In Table 4 below, the stabilities of the DIMEB complex from Example 3 a) 1. and the non-complexed active ingredient are compiled: […]

[5] = Storage of compound 1 at room temperature; type: physicochemical; conditions: after four months at room temperature
[6] = Isomerization to the previtamin in the complexing with cyclodextrins (HPLC); type: physicochemical
Method: It is stirred for 2 hours at 22° C. and for 2 hours at 0° C. The solid is suctioned off and washed with 5 ml of cold water. After drying, 1.73 g (90% of theory) is obtained as a white solid. After HPLC (Stat. phase Chiracel JHRH 150×4.6 mm ID, detection 244 nm, eluant water/acetonitrile, flow: 1 ml/minute, gradient t0=70+30 v/v, linear increase of the gradient over 10 minutes t10 min to 60+40 v/v, isocratic t10 min-30 min 60+40 v/v), the solid, in addition to ergocalciferol (tRet.=26 minutes), contains 24% of the previtamin form (tRet.=23 minutes).
10 mg (0.024 mmol, MW 416.65) of calcitriol (dissolved in 100 μl of ethanol) is added in drops to the clear solution over 10 minutes. It is stirred for 2 hours at 22° C. and for 2 hours at 0-3° C., the solid is filtered off, and it is washed 2 times with 100 μl each of cold water. After drying at 20° C. and 0.5 mbar (24 hours), 26.6 mg of calcitriol-β-CD complex (71.5% of theory) is obtained. After the solid is dissolved in methanol and after an HPLC study (Stat. Phase Chiracel JHRH 150×4.6 mm ID, detection 244 nm, eluant water/acetonitrile, flow: 1 ml/minute, gradient t0=70+30 v/v, linear increase of the gradient over 10 minutes t10 min to 60+40 v/v, isocratic t10 min-30 min 60+40 v/v), the solid contains 23% of the previtamin form (tRet.=12 minutes) in addition to calcitriol (tRet.=17 minutes).
At 25° C., 100 mg (0.21 mmol) of (thiazol-2-yl)-26,27-dinor-9,10-secocholesta-5,7,10(19)-triene-1,3,25-triol (dissolved in 0.5 ml of ethanol) is added. It is stirred for 2 hours at room temperature, then for 2 hours at 0° C. The solid is filtered off, washed with 1 ml of cold water and dried. 290 mg (85% of theory) of solid is obtained. The content of the solid in the previtamin (compound 2) is 20% (HPLC, Stat. Phase Chiracel JHRH 150×4.6 mm ID, detection 244 nm, eluant water/acetonitrile, flow: 1 ml/minute, gradient to =70+30 v/v, linear increase of the gradient over 10 minutes t10 min to 60+40 v/v, isocratic t10 min-30 min 60+40 v/v, tRef. Compound 2: 11.65 minutes, tRef. Compound 1: 18.19 minutes). The sample preparation is carried out by dissolving the complex in 100% methanol.
For analytical study, the complexes can be dissolved in methanol or DMF and can be used in these solutions for the HPLC analysis (see 2.1). The content of the complexes that are obtained can be determined in comparison to the pure substance.

[7] = Exp. 10: 15 d/40° C. aqueous, 80 μg of DIMEB complex per ml, compound 1 20 μg per ml
[8] = Exp. 11: 15 d/60° C. aqueous, 80 μg of DIMEB complex per ml, compound 1 20 μg per ml
[9] = Exp. 12: 15 d/80° C. aqueous, 80 μg of DIMEB complex per ml, compound 1 20 μg per ml
[10] = Exp. 13: 30 d/40° C. aqueous, 80 μg of DIMEB complex per ml, compound 1 20 μg per ml
[11] = Exp. 14: 30 d/60° C. aqueous, 80 μg of DIMEB complex per ml, compound 1 20 μg per ml

CD-Water Solubility (g/100 ml), (25° C.) [3]: 25 g/100 ml
Structure (SMILES): COC[C@H]1O[C@@H]2O[C@H]3[C@H](O)[C@@H](OC)[C@@H](O[C@H]4[C@H](O)[C@@H](OC)[C@@H](O[C@H]5[C@H](O)[C@@H](OC)[C@@H](O[C@H]6[C@H](O)[C@@H](OC)[C@@H](O[C@H]7[C@H](O)[C@@H](OC)[C@@H](O[C@H]8[C@H](O)[C@@H](OC)[C@@H](O[C@H]1[C@H](O)[C@H]2OC)O[C@@H]8COC)O[C@@H]7COC)O[C@@H]6COC)O[C@@H]5COC)O[C@@H]4COC)O[C@@H]3COC [DIMEB, Heptakis-(2,6-di-O-methyl)-β-cyclodextrin]
solubility of the DIMEB ([1]; Saenger et al. 2002, Uekama, Irie 1987): 60 g/100 ml of water
solubility in water ([1]; at 20° C., Saenger et al. 2002): > 50 g/100 ml of water
solubility in water while being heated ([1]; while being heated, Saenger et al. 2002): < 1 g/100 ml
effects in intravenous administration [2]: hemolytic effects

Structure (SMILES): COC[C@H]1O[C@@H]2O[C@H]3[C@H](OC)[C@@H](OC)[C@@H](O[C@H]4[C@H](OC)[C@@H](OC)[C@@H](O[C@H]5[C@H](OC)[C@@H](OC)[C@@H](O[C@H]6[C@H](OC)[C@@H](OC)[C@@H](O[C@H]7[C@H](OC)[C@@H](OC)[C@@H](O[C@H]8[C@H](OC)[C@@H](OC)[C@@H](O[C@H]1[C@H](OC)[C@H]2OC)O[C@@H]8COC)O[C@@H]7COC)O[C@@H]6COC)O[C@@H]5COC)O[C@@H]4COC)O[C@@H]3COC [TRIMEB]
CD-Water Solubility (g/100 ml), (25° C.) [3]: 200 g/100 ml

Structure (SMILES): OC[C@H]1O[C@@H]2O[C@H]3[C@H](O)[C@@H](O)[C@@H](O[C@H]4[C@H](O)[C@@H](O)[C@@H](O[C@H]5[C@H](O)[C@@H](O)[C@@H](O[C@H]6[C@H](O)[C@@H](O)[C@@H](O[C@H]7[C@H](O)[C@@H](O)[C@@H](O[C@H]8[C@H](O)[C@@H](O)[C@@H](O[C@H]9[C@H](O)[C@@H](O)[C@@H](O[C@H]1[C@H](O)[C@H]2O)O[C@@H]9CO)O[C@@H]8CO)O[C@@H]7CO)O[C@@H]6CO)O[C@@H]5CO)O[C@@H]4CO)O[C@@H]3CO [γ-Cyclodextrin, γ-cyclodextrin]
Cyclodextrin Solubility in Water (20° C.) ([1]; 20° C., source Szejtly 1988): 23.3 g/100 ml

By-Products ([4]; Exp. 2: 30 d 40° C.): 3.08%
Purity ([4]; Exp. 2: 30 d 40° C.): 96.08%
By-Products ([4]; Exp. 3: 3 d/80° C./75% rel F.): 77.45%
Purity ([4]; Exp. 3: 3 d/80° C./75% rel F.): 22.55%
By-Products ([4]; Exp. 4: 7 d/80° C./75% rel F.): 95.34%
Purity ([4]; Exp. 4: 7 d/80° C./75% rel F.): 4.66%
By-Products ([4]; Exp. 5: 15 d/40° C./75% rel F.): 2.9%
Purity ([4]; Exp. 5: 15 d/40° C./75% rel F.): 96.61%
By-Products ([4]; Exp. 6: 15 d/60° C./75% rel F.): 2.96%
Purity ([4]; Exp. 6: 15 d/60° C./75% rel F.): 96.34%
By-Products ([4]; Exp. 7: 15 d/80° C./75% rel F.): 100%
Purity ([4]; Exp. 7: 15 d/80° C./75% rel F.): 0%
By-Products ([4]; Exp. 8: 30 d/40° C./75% rel F.): 3.00%
Purity ([4]; Exp. 8: 30 d/40° C./75% rel F.): 96.7%
By-Products ([4]; Exp. 9: 30 d/60° C./75% rel F.): 2.98%
Purity ([4]; Exp. 9: 30 d/60° C./75% rel F.): 96.23%
By-Products [4, 7]: 2.92** %
Purity [4, 7]: 92.78%
By-Products [4, 8]: 18.69** %
Purity [4, 8]: 77.12%
By-Products [4, 9]: 96.72** %
Purity [4, 9]: 3.28%
By-Products [4, 10]: 3.20** %
Purity [4, 10]: 91.96%
By-Products [4, 11]: 37.26** %
Purity [4, 11]: 59.76%
By-Products ([4]; Start): 3%
Purity ([4]; Start): 96.12%
previtamin content [5]: about 2%
content ([5]; in comparison to fresh samples or samples stored under inert conditions): 60%
% Previtamin (in Solution) ([6]; Table 2, compound 1 without CD): 0.2 (in %
% Previtamin ([6]; Table 3, compound 1 without CD): 0.3%
Structure (SMILES): C=C1/C(=C\C=C2/CCC[C@]3(C)[C@@H]([C@H](C)CCC[C@H](O)c4nccs4)CC[C@@H]23)C[C@@H](O)C[C@@H]1O [Compound 1, (thiazol-2-yl)-26,27-dinor-9,10-secocholesta-5,7,10(19)-triene-1,3,25-triol]

% Previtamin (in Solution) ([6]; Table 1, without cyclodextrin): 0.3%
Structure (SMILES): C=C1/C(=C\C=C2/CCC[C@]3(C)[C@@H]([C@H](C)CCCC(C)(C)O)CC[C@@H]23)C[C@@H](O)C[C@@H]1O [Calcitriol, (5Z,7E)-(1S,3R)-9,10-secocholesta-5,7,10(19)-triene-1,3,25-triol]
previtamin formation / isomerization (in words) [6]: do not show any significant previtamin formation

% Previtamin (in Solution) ([6]; Table 1, without cyclodextrin): 0.2%
Structure (SMILES): C=C1CC[C@H](O)C/C1=C/C=C1\CCC[C@]2(C)[C@@H]([C@H](C)/C=C/[C@H](C)C(C)C)CC[C@@H]12 [Ergocalciferol, (5Z,7E,22E)-(3S)-9,10-secoergosta-5,7,10(19),22-tetraen-3-ol]
previtamin formation / isomerization (in words) [6]: do not show any significant previtamin formation

Source: patent US20070093448A1, “Complexes that consist of vitamin D compounds or analogs thereof with a 5Z,7E,10(19)-triene system and methylated derivatives of beta-cyclodextrin” (priority 2005, published 2007)
